Data taken from US7713969B2, “Compositions and methods for treatment of cancer” (ArQule, Inc., priority 2005, dated 2010).

How the values were obtained:
[1] = tested on: MDA-MB-231 human breast cancer xenograft; experiment: MDA-MB-231 xenograft, intraperitoneal 160 mg/kg (Example 81); format: in vivo, mice; conditions: 160 mg/kg intraperitoneally, q3d×10, lipiodol vehicle
Method: Athymic female nude mice (CRL:NU/NU-nuBR) were injected subcutaneously in the flank with MDA-MB-231 human breast cancer cells (8×10^6 cells/mouse). Prior to injection, MDA-MB-231 cells were cultured in DMEM (Invitrogen #11965-092) supplemented with 10% (v/v) heat inactivated fetal bovine serum (FBS), 1% Hepes buffer solution (Invitrogen #15630-080) and 1% Penicillin/Streptomycin (Invitrogen #15140-122) at 37° C. in 5% CO2. Tumors were allowed to grow to approximately 50 mm^3 in size. Animals were randomized into three groups of five animals per group. At day ten post injection, mice with established tumors were treated intraperitoneally with (±)-cis-3-(5,6-dihydro-4H-pyrrolo[3,2,1-ij]quinolin-1yl)-4(1H-indol-3-yl) pyrrolidine-2,5-dione (160 mg/kg), (±)-trans-3-(5,6-dihydro-4H-pyrrolo[3,2,1-ij]quinolin-1-yl)-4(1H-indol-3-yl)pyrrolidine-2,5-dione (160 mg/kg) administered in iodinated poppy seed oil (lipiodol) as the vehicle at 10 mg/ml, or vehicle control. Drug or vehicle was administered every three days for a total of ten doses (q3d×10). Tumor size was evaluated periodically during the study. For each subject, tumor volume was calculated using the formula (L×W^2)/2 where L and W were the length and width of the tumor, respectively. The arithmetic mean tumor volume was calculated for each treatment group+/−standard error of the mean (SEM). […]

[2] = tested on: ERK1/2; experiment: ERK1/2 phosphorylation, Western blot (Example 80); format: cell-based, human; conditions: MDA-MB-231 cells, 100 ng/ml HGF/SF 10 minutes
Method: MDA-MB-231 cells were serum-deprived overnight (16 hours) in the absence or in the presence of the indicated concentrations of the separate enantiomers (+)-trans-3-(5,6-dihydro-4H-pyrrolo[3,2,1-ij]quinolin-1-yl)-4(1H-indol-3-yl)pyrrolidine-2,5-dione and (−)-trans-3-(5,6-dihydro-4H-pyrrolo[3,2,1-ij]quinolin-1-yl)-4(1H-indol-3-yl)pyrrolidine-2,5-dione. Cells were treated with 100 ng/ml recombinant human Hepatocyte Growth Factor/Scatter Factor (HGF/SF) (R&D Systems #294-HG) for 10 minutes. Whole cell extracts were prepared in lysis buffer (20 mM Trwas-HC1 pH 7.5, 150 mM NaCl, 1 mM Na2EDTA, 1 mM EGTA, 1% Triton X-100, 2.5 mM sodium pyrophosphate, 1 mM beta-glycerophosphate, 1 mM Na3VO4, 1 μg/ml leupeptin, 1 mM phenylmethylsulfonyl fluoride) and sonicated. Protein concentration was measured by Bradford assay using the BioRad reagent (BioRad, Hercules, Calif.), according to the manufacturer's directions. Samples (50 μg of protein) were resolved by 8% SDS-PAGE under reducing conditions, and transferred onto a PVDF membrane (BioRad). […] Proteins were detected by incubation overnight at 4° C. in TBS-T with 5% milk and either a polyclonal antibody against phosphorylated c-Met (#3121), phosphorylated Erk1/2 (#9101), total Erk1/2 protein (#9102) (Cell Signaling Technology); or a monoclonal antibody against […] (A-5441) (Sigma), which was used as a control for total protein loading. […]

[3] = tested on: A549 human lung cancer cells; experiment: Annexin V / propidium iodide staining (Example 84); format: cell-based; conditions: 1.2 μM, 38 hours
Method: A549 human lung cancer cells in a 96-well plate (Costar 3603, 5,000/well) were treated with either A) DMSO as a control; B) 1.2 μM (−)-trans-3-(5,6-dihydro-4H-pyrrolo[3,2,1-ij]quinolin-1-yl)-4(1H-indol-3-yl)pyrrolidine-2,5-dione for 38 hours before addition of 1:200 fluorescent Annexin V (green) and 1:500 Propidium iodide (magenta, final concentration of 1 μg/mL). The labeling procedure was allowed to process at 37° C. for 20 minutes followed by image acquisition and analysis using an IC100 Image Cytometer (Beckman Coulter, Inc) with 10× amplification.
To determine whether (−)-trans-3-(5,6-dihydro-4H-pyrrolo[3,2,1-ij]quinolin-1-yl)-4(1H-indol-3-yl)pyrrolidine-2,5-dione works primarily through a cytostatic or apoptotic mechanism, cancer cells exposed to (−)-trans-3-(5,6-dihydro-4H-pyrrolo[3,2,1-ij]quinolin-1-yl)-4(1H-indol-3-yl) pyrrolidine-2,5-dione were stained with fluorescently labeled Annexin V (green fluorescence) and propidium iodide (bright magenta fluorescence). Annexin V is a well-validated reagent that specifically binds with high affinity to externalized membrane phosphatidylserine, an early marker of the onset of apoptosis, while propidium iodide is a marker for dead cells. […] (See FIG. 8)

SMILES	reduction of normalized mean tumor volume compared to vehicle treated control [1]	phosphorylation of ERK1/2 [2]	apoptosis evidenced by Annexin V staining [3]	cells that co-stain with both Annexin V and propidium iodide [3]
O=C1NC(=O)[C@@H](c2cn3c4c(cccc24)CCC3)[C@@H]1c1c[nH]c2ccccc12 (racemic) [(±)-Trans-3-(5,6-dihydro-4H-pyrrolo[3,2,1-ij]quinolin-1-yl)-4(1H-indol-3-yl)pyrrolidine-2,5-dione]	43.5%	–	–	–
O=C1NC(=O)C(c2cn3c4c(cccc24)CCC3)C1c1c[nH]c2ccccc12 (single isomer, unassigned; (-))	–	decreases the phosphorylation of ERK1/2	induced cells to undergo apoptosis	10-20%
